# Experimental data from ChEMBL document CHEMBL1201862, “PubChem BioAssay data set” (2004).
# Activity calls are given as the source filed them.
# Legend:
# Bcl-2-related protein A1 = molecular target: T1, Bcl-2-related protein A1 (Mus musculus, UniProt Q07440); format: functional;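 note: confirmatory dose–response counterscreen on Bfl-1, used to check hits from a UBC13 polyubiquitin inhibitor campaign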
# T1 sequence (Q07440 whole entry): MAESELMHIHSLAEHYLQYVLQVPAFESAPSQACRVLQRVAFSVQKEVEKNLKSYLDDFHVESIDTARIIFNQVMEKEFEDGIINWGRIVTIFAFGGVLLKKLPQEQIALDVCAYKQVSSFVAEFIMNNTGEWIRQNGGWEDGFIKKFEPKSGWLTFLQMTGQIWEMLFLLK
# [1] = molecular target: T2, Ubiquitin-conjugating enzyme E2 N (Homo sapiens, UniProt P61088); format: functional
# T2 sequence (P61088 whole entry): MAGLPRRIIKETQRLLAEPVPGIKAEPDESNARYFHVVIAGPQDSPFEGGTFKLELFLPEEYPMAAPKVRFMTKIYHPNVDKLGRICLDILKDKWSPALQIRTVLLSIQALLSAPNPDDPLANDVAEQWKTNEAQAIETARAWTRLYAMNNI
# [2] = molecular target: T2, Ubiquitin-conjugating enzyme E2 N; format: functional; remark: listed apart in the source
# [3] = molecular target: Glyceraldehyde-3-phosphate dehydrogenase (Homo sapiens, UniProt P04406)
# [4] = molecular target: T3, Alkaline phosphatase, tissue-nonspecific isozyme (Homo sapiens, UniProt P05186); experiment: human TNAP enzyme inhibitors, SAR follow-up, biochemical, luminescent, dose response (AID 1056)
# T3 sequence (P05186 whole entry): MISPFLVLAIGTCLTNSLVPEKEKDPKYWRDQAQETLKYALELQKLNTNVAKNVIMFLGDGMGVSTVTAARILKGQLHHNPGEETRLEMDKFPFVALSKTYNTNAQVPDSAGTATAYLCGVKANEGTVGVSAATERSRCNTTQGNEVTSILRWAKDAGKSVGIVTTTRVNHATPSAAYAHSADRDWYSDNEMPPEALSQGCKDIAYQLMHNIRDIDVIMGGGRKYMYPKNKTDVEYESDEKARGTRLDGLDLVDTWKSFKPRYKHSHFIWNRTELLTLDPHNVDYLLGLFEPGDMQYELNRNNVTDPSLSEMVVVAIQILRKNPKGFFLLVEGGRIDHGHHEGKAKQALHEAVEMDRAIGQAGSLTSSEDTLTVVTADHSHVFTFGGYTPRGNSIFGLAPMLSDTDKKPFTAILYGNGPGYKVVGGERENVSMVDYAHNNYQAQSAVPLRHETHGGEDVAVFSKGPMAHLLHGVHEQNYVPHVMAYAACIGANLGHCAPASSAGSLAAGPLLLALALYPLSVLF
# Hexokinase HKDC1 = molecular target: T4, Hexokinase HKDC1 (Homo sapiens, UniProt Q2TB90); experiment: HKDC1 hexokinase activators, dose response, biochemical, W721R variant (AID 504730); format: functional
# T4 sequence (Q2TB90 whole entry): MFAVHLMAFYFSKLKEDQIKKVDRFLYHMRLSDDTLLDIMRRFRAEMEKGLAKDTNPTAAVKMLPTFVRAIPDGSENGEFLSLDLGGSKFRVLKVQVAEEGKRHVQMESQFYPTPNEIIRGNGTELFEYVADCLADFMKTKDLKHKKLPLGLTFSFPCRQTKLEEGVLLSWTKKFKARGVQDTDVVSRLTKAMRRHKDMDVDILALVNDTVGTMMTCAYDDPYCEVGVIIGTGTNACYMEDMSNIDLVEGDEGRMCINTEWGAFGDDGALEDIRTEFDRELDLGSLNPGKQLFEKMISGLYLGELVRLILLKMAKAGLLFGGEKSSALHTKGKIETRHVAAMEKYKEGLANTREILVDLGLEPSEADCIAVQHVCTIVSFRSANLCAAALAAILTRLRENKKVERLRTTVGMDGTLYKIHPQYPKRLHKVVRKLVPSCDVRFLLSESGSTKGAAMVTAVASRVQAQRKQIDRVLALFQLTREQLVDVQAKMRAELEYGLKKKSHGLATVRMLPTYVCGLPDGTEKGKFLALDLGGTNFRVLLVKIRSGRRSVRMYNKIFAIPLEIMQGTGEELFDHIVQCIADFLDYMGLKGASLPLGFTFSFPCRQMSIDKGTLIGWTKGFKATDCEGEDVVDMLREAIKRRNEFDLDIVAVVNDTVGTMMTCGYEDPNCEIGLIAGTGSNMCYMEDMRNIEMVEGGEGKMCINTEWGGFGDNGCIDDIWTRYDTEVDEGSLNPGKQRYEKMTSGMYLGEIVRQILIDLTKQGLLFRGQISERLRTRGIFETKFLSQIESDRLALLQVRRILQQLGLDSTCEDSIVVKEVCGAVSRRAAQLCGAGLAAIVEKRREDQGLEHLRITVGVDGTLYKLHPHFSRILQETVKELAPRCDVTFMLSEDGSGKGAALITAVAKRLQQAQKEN
# Hexokinase-1 = molecular target: T5, Hexokinase-1 (Homo sapiens, UniProt P19367); experiment: hexokinase 1 activators, dose response, selectivity assay for HKDC1 activator project, biochemical (AID 504762); format: functional
# T5 sequence (P19367 whole entry): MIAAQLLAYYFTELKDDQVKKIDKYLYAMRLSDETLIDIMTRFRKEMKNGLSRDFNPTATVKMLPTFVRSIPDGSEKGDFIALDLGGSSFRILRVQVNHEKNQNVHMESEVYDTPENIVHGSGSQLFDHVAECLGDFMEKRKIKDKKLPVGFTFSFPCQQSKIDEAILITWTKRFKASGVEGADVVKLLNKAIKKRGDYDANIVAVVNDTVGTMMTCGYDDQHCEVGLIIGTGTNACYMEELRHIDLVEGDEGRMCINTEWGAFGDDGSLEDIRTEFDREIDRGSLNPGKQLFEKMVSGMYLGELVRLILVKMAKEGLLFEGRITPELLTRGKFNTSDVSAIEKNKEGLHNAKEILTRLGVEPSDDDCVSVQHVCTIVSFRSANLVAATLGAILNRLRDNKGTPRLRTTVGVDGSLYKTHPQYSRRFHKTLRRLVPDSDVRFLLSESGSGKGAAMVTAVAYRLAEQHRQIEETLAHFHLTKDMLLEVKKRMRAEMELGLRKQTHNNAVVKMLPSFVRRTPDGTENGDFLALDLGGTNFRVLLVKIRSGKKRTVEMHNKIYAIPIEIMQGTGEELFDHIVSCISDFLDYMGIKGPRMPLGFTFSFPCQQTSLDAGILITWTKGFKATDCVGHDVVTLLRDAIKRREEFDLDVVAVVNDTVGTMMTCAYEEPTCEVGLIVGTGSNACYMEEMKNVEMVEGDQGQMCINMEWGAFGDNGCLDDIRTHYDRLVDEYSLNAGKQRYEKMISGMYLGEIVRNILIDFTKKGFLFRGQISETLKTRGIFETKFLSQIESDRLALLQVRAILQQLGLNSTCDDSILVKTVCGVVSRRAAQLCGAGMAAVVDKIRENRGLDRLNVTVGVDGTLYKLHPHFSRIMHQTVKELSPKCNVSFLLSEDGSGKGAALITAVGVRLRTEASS
# [5] = THP-1 cell cytotoxicity, dose response, cytotoxicity control for non-replicating M. tuberculosis project (AID 489025); format: functional
# [6] = HepG2 cell cytotoxicity, dose response, cytotoxicity control for non-replicating M. tuberculosis project (AID 489018); format: functional; conditions: Mycobacterium tuberculosis
# cells = format: functional
# X-box-binding protein 1 = X-box-binding protein 1 (Homo sapiens, UniProt P17861); format: functional, Cricetulus griseus;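 note: confirmatory dose-response counter-screen serving a CHOP assay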
# Vero = experiment: cells; format: functional; conditions: Chlorocebus sabaeus
# [7] = molecular target: T6, Voltage-gated N-type calcium channel alpha-1B subunit/Amyloid beta A4 precursor protein-binding family A member 1 (Homo sapiens, UniProt Q00975+Q02410); format: protein assay
# [8] = molecular target: T7, Mannose-6-phosphate isomerase (Homo sapiens, UniProt P34949); experiment: inhibitors of human PMI, primary screen, biochemical, fluorescence intensity, coupled assay (AID 1209)
# T7 sequence (P34949 whole entry): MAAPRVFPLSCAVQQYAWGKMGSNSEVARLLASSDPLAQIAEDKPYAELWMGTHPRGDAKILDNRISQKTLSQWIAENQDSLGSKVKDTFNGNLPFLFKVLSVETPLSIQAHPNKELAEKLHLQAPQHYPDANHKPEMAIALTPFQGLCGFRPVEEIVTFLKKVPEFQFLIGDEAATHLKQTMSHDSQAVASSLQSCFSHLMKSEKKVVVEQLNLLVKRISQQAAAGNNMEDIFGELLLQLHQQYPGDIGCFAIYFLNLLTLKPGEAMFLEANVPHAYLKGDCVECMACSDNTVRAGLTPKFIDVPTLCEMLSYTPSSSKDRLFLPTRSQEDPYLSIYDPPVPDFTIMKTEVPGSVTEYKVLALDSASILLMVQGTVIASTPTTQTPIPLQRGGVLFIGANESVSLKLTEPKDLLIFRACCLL
# [9] = molecular target: T6, Voltage-gated N-type calcium channel alpha-1B subunit/Amyloid beta A4 precursor protein-binding family A member 1; format: protein assay; remark: listed apart in the source
# [10] = molecular target: DNA dC->dU-editing enzyme APOBEC-3A (Homo sapiens, UniProt P31941); experiment: APOBEC3A DNA deaminase inhibitors, dose response, biochemical (AID 504722); format: functional
# [11] = molecular target: Glucose-6-phosphate 1-dehydrogenase (Homo sapiens, UniProt P11413); experiment: human G6PD enzyme inhibitors, dose response, selectivity assay for P. falciparum G6PD inhibitor project, biochemical, fluorescence (AID 504792); format: functional
# [12] = molecular target: Eukaryotic translation initiation factor 4E (Mus musculus, UniProt P63073); experiment: eIF4E–eIF4G protein interaction inhibitors, dose response, biochemical, TR-FRET (AID 855); format: functional;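 note: potency for disrupting eIF4E binding to eIF4GI seen as loss of FRET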
# [13] = molecular target: DNA dC->dU-editing enzyme APOBEC-3G (Homo sapiens, UniProt Q9HC16); experiment: Dose Response confirmation of small molecule APOBEC3G DNA Deaminase Inhibitors via a fluorescence-based single-stranded DNA deaminase assay. [Related pubchem assays (depositor defined):AID493012, AID493028]; format: functional
# [14] = molecular target: T8, Low molecular weight phosphotyrosine protein phosphatase (Homo sapiens, UniProt P24666); format: functional; conditions: read-out: IC50_Mean;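 note: Dose-response confirmation assay measuring inhibition of LMPTP enzyme activity by fluorescence intensity read-out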
# T8 sequence (P24666 whole entry): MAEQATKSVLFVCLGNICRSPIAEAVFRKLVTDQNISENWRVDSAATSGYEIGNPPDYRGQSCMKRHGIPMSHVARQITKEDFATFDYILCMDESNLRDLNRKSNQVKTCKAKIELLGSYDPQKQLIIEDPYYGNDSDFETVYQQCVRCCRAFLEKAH
# Cytochrome P450 3A4 = Cytochrome P450 3A4 (Homo sapiens, UniProt P08684);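 note: CYP3A4 tested as one member of a cytochrome P450 panel screen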
# [15] = inhibitors of firefly luciferase expression or activity, dose response, H4 neuroglioma cells, luminescence (AID 1990); format: functional, cell-based
# [16] = Luminescence Cell-Based Dose Response HTS to Identify Inhibitors of 5'UTR Stem-Loop Driven Prion Protein mRNA Translation in H4 Neuroglioblastoma Cells. [Related pubchem assays: 1827 (Project Summary), 1813 (Primary HTS)]; format: functional
# [17] = inhibitors of SNCA 5'UTR-driven reporter translation, confirmation, H4 neuroglioma cells, luminescence (AID 1988); format: functional, cell-based
# [18] = microbe, parasite or virus in culture; format: functional; conditions: Mycobacterium tuberculosis
# [19] = Vero E6 cell cytotoxicity, dose response, cytotoxicity control for non-replicating M. tuberculosis project, secondary assay (AID 492998); format: functional, VeroE6; conditions: Vero C1008
# [20] = Luminescence Cell-Based Dose Retest to Confirm Inhibitors of Cancer Stem Cells. [Related pubchem assays (depositor defined):AID2717, AID2721]; format: functional; conditions: Homo sapiens
# INS1 = experiment: beta cell apoptosis inhibitors, cytokine rescue, dose response, luminescence, retest (AID 449756); format: functional, cell-based; conditions: Rattus norvegicus;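 note: cell death triggered by IL-1 beta plus TNF-alpha plus IFN-gamma mixture; protective hits raise ATP signal compared with cytokine alone wells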
# [21] = Shn3 3'UTR reporter inhibitors, dose response, cell-based, Clone20 osteoblasts, firefly luciferase, cherry-picked (AID 624132); format: functional;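 note: firefly luciferase luminescence from reporter carrying the Shn3 3'UTR in osteoblasts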
# [22] = HepG2 cell cytotoxicity, dose response, cytotoxicity control for Shn3 inhibitor project, CellTiter-Glo, cherry-picked (AID 624134); format: functional, cell-based
# [23] = control 3'UTR Renilla luciferase suppression, dose response, counter-screen for Shn3 inhibitor project, cell-based, Clone20-Shn3RL, cherry-picked (AID 624133); format: functional
# X-box-binding protein 1, sequence (P17861 whole entry): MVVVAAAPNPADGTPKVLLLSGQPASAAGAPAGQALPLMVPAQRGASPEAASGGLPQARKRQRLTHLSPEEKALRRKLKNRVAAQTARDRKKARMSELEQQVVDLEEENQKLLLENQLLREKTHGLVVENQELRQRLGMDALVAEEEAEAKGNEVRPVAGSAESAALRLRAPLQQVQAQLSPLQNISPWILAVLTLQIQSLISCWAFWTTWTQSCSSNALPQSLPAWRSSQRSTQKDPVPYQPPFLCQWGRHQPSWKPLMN
# T6 sequence (Q00975 whole entry): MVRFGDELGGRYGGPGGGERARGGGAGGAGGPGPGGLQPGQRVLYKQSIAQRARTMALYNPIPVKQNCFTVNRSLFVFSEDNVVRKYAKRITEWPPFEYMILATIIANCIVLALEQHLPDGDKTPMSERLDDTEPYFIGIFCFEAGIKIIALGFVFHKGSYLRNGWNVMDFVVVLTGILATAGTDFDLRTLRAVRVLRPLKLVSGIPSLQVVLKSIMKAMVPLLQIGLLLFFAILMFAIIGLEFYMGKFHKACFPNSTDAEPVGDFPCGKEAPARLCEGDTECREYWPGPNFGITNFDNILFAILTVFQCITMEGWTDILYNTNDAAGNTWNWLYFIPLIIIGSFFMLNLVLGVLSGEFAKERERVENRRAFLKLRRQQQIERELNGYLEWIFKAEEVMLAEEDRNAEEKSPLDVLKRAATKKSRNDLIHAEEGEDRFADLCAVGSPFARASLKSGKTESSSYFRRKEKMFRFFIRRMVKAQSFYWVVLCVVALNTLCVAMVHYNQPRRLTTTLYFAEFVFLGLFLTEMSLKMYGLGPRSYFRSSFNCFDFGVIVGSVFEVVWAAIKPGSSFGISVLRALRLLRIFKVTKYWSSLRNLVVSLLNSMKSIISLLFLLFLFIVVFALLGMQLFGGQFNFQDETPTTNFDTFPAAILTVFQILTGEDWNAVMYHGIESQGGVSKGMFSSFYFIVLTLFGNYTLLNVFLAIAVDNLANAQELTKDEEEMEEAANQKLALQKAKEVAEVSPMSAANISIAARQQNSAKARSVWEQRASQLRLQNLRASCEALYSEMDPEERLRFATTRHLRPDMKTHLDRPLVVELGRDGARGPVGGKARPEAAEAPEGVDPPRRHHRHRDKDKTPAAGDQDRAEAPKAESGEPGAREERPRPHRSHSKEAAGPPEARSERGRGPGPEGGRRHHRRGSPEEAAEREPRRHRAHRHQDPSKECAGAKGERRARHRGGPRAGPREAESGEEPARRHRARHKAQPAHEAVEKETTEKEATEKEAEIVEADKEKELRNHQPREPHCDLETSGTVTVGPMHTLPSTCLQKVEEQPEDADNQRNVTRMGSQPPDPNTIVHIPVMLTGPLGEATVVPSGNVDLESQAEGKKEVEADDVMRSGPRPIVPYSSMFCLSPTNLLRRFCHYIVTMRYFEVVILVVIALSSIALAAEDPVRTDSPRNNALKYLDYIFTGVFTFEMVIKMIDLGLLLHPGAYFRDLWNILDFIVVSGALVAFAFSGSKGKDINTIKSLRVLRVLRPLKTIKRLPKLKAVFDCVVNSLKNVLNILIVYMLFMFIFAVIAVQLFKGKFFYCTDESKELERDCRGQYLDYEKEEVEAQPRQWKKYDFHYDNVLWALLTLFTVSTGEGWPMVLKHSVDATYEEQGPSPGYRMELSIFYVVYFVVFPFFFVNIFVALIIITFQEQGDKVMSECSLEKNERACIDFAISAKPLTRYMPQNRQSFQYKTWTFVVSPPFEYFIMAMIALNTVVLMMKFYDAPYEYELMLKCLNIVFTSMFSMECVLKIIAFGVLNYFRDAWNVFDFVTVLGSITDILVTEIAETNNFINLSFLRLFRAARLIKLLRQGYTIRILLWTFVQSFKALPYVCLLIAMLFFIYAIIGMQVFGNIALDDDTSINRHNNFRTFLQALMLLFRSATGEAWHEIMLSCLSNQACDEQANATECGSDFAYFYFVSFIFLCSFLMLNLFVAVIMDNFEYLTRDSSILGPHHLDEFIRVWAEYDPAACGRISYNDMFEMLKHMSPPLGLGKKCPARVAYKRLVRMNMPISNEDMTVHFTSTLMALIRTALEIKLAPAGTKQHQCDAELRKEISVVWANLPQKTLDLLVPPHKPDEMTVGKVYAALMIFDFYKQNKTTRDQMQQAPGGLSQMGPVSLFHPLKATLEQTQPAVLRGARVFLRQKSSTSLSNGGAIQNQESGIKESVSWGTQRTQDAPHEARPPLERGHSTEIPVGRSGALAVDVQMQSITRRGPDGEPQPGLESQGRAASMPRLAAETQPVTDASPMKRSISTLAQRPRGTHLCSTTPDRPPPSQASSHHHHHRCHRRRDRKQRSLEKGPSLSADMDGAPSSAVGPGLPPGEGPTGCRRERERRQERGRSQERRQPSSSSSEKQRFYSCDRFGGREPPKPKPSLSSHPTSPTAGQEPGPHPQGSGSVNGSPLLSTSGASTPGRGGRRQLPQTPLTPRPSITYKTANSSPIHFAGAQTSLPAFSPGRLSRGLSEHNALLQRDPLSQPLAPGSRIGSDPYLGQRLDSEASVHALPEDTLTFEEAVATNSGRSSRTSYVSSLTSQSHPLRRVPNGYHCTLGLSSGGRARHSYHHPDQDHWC
# T6 sequence (Q02410 whole entry): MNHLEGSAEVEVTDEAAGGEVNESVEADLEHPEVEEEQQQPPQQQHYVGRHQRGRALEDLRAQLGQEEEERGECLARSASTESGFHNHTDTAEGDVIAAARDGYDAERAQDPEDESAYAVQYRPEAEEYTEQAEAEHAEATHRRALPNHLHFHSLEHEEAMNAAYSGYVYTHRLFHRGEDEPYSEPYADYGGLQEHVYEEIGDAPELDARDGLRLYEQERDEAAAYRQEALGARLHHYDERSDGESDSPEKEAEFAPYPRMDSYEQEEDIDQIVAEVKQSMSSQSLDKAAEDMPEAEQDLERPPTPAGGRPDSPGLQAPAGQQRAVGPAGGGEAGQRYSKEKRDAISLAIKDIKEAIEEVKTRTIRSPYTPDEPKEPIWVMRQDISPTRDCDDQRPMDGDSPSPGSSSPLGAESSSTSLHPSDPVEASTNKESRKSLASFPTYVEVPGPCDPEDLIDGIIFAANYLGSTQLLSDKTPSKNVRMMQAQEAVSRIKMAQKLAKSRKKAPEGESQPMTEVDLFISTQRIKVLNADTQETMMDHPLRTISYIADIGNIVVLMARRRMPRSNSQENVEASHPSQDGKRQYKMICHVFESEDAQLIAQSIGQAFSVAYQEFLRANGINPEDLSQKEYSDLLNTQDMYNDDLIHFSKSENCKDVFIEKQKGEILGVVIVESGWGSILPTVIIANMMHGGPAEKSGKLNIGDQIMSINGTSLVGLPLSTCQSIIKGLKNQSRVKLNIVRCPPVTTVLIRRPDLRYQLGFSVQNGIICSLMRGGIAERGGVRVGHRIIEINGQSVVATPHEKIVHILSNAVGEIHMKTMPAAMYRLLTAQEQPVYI
# Glyceraldehyde-3-phosphate dehydrogenase, sequence (P04406 whole entry): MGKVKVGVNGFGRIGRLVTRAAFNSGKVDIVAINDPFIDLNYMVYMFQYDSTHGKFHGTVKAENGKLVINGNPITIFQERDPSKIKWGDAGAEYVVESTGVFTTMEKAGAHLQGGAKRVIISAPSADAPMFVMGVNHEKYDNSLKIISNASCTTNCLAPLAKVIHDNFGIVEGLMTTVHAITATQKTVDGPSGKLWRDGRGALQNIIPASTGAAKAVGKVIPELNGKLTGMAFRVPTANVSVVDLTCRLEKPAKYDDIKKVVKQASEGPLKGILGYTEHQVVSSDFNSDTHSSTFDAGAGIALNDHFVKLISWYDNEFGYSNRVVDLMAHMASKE
# DNA dC->dU-editing enzyme APOBEC-3G, sequence (Q9HC16 whole entry): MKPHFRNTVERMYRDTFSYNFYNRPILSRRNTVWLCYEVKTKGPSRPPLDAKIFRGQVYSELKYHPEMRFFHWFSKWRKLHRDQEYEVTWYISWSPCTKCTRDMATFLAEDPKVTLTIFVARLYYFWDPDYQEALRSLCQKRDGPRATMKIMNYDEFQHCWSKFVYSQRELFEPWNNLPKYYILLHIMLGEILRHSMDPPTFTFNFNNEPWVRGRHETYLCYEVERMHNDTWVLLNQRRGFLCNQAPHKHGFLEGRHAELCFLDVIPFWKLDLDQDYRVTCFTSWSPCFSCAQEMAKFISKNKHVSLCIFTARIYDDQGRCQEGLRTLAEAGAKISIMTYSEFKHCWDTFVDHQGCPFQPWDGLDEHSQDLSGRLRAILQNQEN
# Eukaryotic translation initiation factor 4E, sequence (P63073 whole entry): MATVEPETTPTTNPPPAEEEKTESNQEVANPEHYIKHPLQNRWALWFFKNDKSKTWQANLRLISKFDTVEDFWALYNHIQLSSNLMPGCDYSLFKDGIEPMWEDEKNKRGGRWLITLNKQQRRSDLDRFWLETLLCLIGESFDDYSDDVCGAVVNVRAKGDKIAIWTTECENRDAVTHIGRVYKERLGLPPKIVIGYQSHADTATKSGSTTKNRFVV
# Cytochrome P450 3A4, sequence (P08684 whole entry): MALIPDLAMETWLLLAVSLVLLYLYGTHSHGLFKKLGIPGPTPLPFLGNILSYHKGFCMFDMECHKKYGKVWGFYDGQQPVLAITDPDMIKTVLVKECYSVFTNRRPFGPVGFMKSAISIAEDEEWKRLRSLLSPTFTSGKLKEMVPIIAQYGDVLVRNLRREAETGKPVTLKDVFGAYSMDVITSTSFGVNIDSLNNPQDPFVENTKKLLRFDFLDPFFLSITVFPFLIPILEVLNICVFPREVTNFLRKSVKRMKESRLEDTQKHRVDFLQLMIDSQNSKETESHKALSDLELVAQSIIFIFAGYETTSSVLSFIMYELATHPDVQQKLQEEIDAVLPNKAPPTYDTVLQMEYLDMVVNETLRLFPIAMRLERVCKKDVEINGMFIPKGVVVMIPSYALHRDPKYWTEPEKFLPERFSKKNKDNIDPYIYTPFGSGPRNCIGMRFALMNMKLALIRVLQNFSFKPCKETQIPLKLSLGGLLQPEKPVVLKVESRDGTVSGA
structure (smiles),measurement,setting,value
C#CCOCCOCCOCCNc1nc(N2CCN(C(=O)CCCCCCCCCCNC(=O)[C@@H](CCSC)n3cc(CCO)nn3)CC2)nc(N2CCN(C(=O)CCCCCCCCCCNC(=O)[C@H](CCCN=C(N)N)n3cc(C[C@@H](C)CC)nn3)CC2)n1,IC50,Bcl-2-related protein A1,3.08 µM (active)
same,IC50,[1],5.55 µM (active)
same,IC50,[2],3.03 µM (active)
O=C(O)c1cc(-c2ccc(Cl)cc2)n[nH]1,IC50,[3],> 100 µM (not active)
same,IC50,[4],6.14 µM (active)
Cc1cc(C2=NN=C(Nc3ccc(S(=O)(=O)N4CCOCC4)cc3)SC2)c(C)n1C,EC50,Hexokinase HKDC1,24.7 µM (inactive)
same,EC50,Hexokinase-1,46 µM (inactive)
Cc1nc(-c2ccc(C(F)(F)F)cc2)sc1C(=O)NN,CC50,[5],20.7 µM (active)
same,CC50,[6],> 20 µM (active)
same,IC50,cells,35.9 µM (active)
COc1cc(OC)c(OC)cc1/C=N/Nc1[nH]cnc2c3ccccc3nc1-2,Absolute IC50 (XBP1),X-box-binding protein 1,10 µM
same,CC50,Vero,> 25 µM (active)
COc1cc(/N=c2\ssnc2Cl)cc(OC)c1OC,IC50,[7],10.8 µM (active)
same,IC50,[8],4.76 µM (active)
same,IC50,[9],5.22 µM (active)
same,IC50,[10],> 100 µM (inactive)
same,IC50,[11],69.4 µM (inactive)
same,EC50,Hexokinase HKDC1,56.9 µM (inactive)
same,IC50,[12],20.4 µM (active)
same,IC50,[13],7.2 µM (active)
same,EC50,Hexokinase-1,55.3 µM (inactive)
same,IC50,cells,43.6 µM (active)
same,IC50,[14],80 µM (inactive)
same,AC50,Cytochrome P450 3A4,31.6 µM (inconclusive)
CCCCCC(=O)N/N=C(\C)c1ccccn1,EC50,[15],12.5 µM (active)
same,EC50,[16],7.26 µM (active)
same,EC50,[17],5.13 µM (active)
same,CC50,[18],21.4 µM (active)
same,CC50,[5],11.1 µM (active)
same,CC50,[6],> 20 µM (active)
same,CC50,[19],13.3 µM (active)
same,IC50,cells,10.3 µM (active)
COc1cc(Cl)ccc1S(=O)(=O)Nc1ccc2ccccc2c1,IC50,[3],> 100 µM (not active)
same,IC50,[4],> 100 µM (inactive)
FC(F)(F)c1nnc(-c2ccccc2)nc1Sc1ccc(Cl)cc1,AC50,[20],4 µM (active)
same,Absolute IC50 (XBP1),X-box-binding protein 1,10 µM
same,AC50,INS1,9.75 µM (active)
same,AC50,[21],14.7 µM (active)
same,AC50,[22],31.4 µM (active)
same,AC50,[23],21 µM (active)
